Laboratory results from patent US11839615B2, “Compounds and methods for treating addiction and related disorders” (Astrocyte Pharmaceuticals, Inc., priority 2018, dated 2023).

Assays:
[1] = test system: traumatic brain injury (TBI); experiment: Traumatic brain injury (TBI), GFAP expression by Western blot; conditions: for TBI induced increases in GFAP expression: treatment 30 min post-TBI, ipsilateral brain homogenates and plasma at day 7, vs TBI untreated
Protocol: Mice underwent sham or TBI (on Ipsilateral side of brain) and received treatments as labeled 30 min post-TBI. Plasma was obtained from mice at 7 days post-injury, then sacrificed to obtain brain homogenates from the ipsilateral and contralateral hemispheres (middle third). Western blot analysis were normalized to actin. (A and C) Representative blots are shown for Ipsilateral brain homogenates and the plasma at day 7. (B and D) Data were pooled from 3 distinct experiments (N=number of mice per treatment) and plotted as bar histograms, shown as mean of control+/−SEM. *p<0.05 and ** p<0.01 from TBI untreated (dark gray bar).

astrocytes (C8-D1A) = experiment: Oxygen consumption rate (OCR), Seahorse; format: cell-based
Protocol: FIG. 2: Oxygen Consumption Rate (OCR) is increased by purinergic agonist AST-004. Cultured astrocytes were plated on a standard Seahorse dish (24 well). After establishing basal OCR, purinergic agonist AST-004 or control (antagonist) was added at first arrow. […] The final addition of mitochondrial inhibitors uncovered non-mitochondrial OCR sources.
We previously reported that any agonist stimulating IP3-mediated Ca^2+ increases in astrocytes increased ATP production in astrocytes (1). […] Minimal change was observed under control injections. […] Addition of rotenone and antimycin uncovered non-mitochondrial sources of oxygen consumption, which was subtracted off from all measurements prior to calculations.
OCR was measured to calculate mitochondrial respiration and performed with a Seahorse XF96 extracellular flux analyzer. A 96-well system measures OCR from a monolayer of cultured intact cells, at intervals of ˜5 minutes. Astrocytes were plated on Seahorse microplates at least 2 days prior to OCR measurements. […] Injection of rotenone and antimycin, inhibitors of complex I and III respectively, uncover non-mitochondrial oxygen consumption.

cultured astrocytes = experiment: Ca2+ measurements in dye-loaded (Cal520) cultured astrocytes; format: cell-based, mouse
Protocol: FIG. 1: AST-004 increases intracellular Ca^2+ in cultured astrocytes. A) Image of resting Ca^2+ levels in dye-loaded (Cal520) astrocytes. B) Spatio-temporal plot of Ca^2+ fluorescence for the vertical line in panel A. AST-004 was added at 2 min. Note the oscillatory Ca^2+ responses for over 6 minutes. C) Plot of integrated Ca^2+ fluorescence intensities (DF/F0) at the indicated A3R agonist concentrations. Values are mean+/−SEM (data pooled from 3 experiments at each concentration). Images were acquired on the Nikon Sweptfield confocal microscope.
The low level stimulation of Ca2+ release persisted throughout the recording (FIG. 1A,B). It was not blocked by pertussis toxin treatment, consistent with Gq-coupling. The integrated Ca^2+ response was also dose-dependent (FIG. 1C) and present in astrocytes cultured from mouse, rat, pig and human brain tissue.
Protocol was modified from McCarthy et al., 1980 (4). Briefly, mice were anesthetized with isoflurane then cervically dislocated. Brains were quickly removed and chopped in trypsin, and allowed to incubate at 37° C. for 30 mins. DMEM/F-12 Media with 10% FCS and primocin was added and brains were triturated to homogenization and filtered through […] mesh, and seeded into culture flasks. The next day, homogenates were transferred to a new flask, and previous flasks had new media added. Cells were grown for 3-4 weeks, with DMEM/F-12 media changes every 3-4 days until cells were 70% confluent.
Ca^2+ activity was imaged as previously described (5). In brief, astrocytes were seeded on glass cover slips 3 and 4 nights before each experiment. Culture dishes were incubated with a fluorescent Ca^2+ sensitive dye (10 μM, Cal520, cell permeant, Abcam) 30 min prior to the experiment. Images were acquired with a confocal laser-scanning microscope at the rate of 1.5 images/s. Data were obtained in recording buffer (120 mM NaCl, 4.5 mM KCl, 1 mm CaCl2), 2 mM MgCl2, 10 mM HEPES, pH 7.4) at room temperature. Images were analyzed with Image J and NIS Elements.

[2] = test system: astrocytes of transgenic mice expressing the Luciferase-reporter gene (GFAP promoter); experiment: In vivo bioluminescent imaging of ATP in astrocytes after blunt TBI; set-up: species or system mouse; conditions: IP injection, two to 4 days after TBI, vs vehicle
Protocol: FIG. 5: In Vivo Bioluminescent Imaging indicates AST-004 increases ATP. A) Transgenic mice expressing the Luciferase-reporter gene in astrocytes (GFAP promoter) were subjected to blunt TBI (Closed Cortical Impact). Two to 4 days after the initial trauma, mice were IP injected with a synthetic D-luciferin analogue (Cytluc1, 100 ul). Bioluminescent signals were recorded with an IVIS Spectrum Imager, 5 min after Cycluc1 injection (green arrow). Mice were then IP injected with either vehicle or AST-004 at […] (blue arrow), the photon flux immediately measured and then compared to the photon flux at 20 minutes (red arrow).
Transgenic mice expressing the Luciferase-reporter gene in astrocytes (GFAP promoter, Dual-Glo mice, Jackson laboratories) were subjected to blunt TBI (Closed Cortical Impact). Two to 4 days after the initial trauma, mice were IP injected with a synthetic D-luciferin analogue (Cycluc 1) and bioluminescent signals recorded on an IVIS Spectrum Imager (FIG. 5A).

astrocytes = experiment: Determination of ATP levels in astrocytes (luciferin-luciferase kit), control or GLUD1 shRNA; format: cell-based
Protocol: FIG. 7: GLUD1 Knockdown (KD) in astrocytes blocks P2Y1R and A3R-stimulated increases in ATP. A, B) Cells were treated with P2Y1R agonist MRS2365 for 20 mins in either normal glucose medium (A) or a glucose-free, galactose (B) supplemented media. Galactose forces cells to use oxidative phosphorylation for energy metabolism. […] Intracellular ATP levels were measured with a luciferin-luciferase kit.
P2Y1R and A3R agonists increased mitochondrial ATP production in astrocytes in a manner that was dependent on GLUD1 expression. One possible hypothesis is that glutamate catabolism into α-KG is mediated by GLUD1, which is enhanced by Ca^2+ dependent stimulation of the ICDH and α-KGDH in the TCA cycle. To test this hypothesis, GLUD1 expression levels were reduced in astrocyte cultures by incubating cells with specific shRNA. […] We repeated these experiments in the presence of galactose, a carbon source that forces cells to generate ATP though oxidative phosphorylation, since glycolysis of galactose is ATP neutral.
Cells were transduced with shRNA lentivirus constructs obtained from Santa Cruz (glud1 #145446-V, for Scrambled #108080). Cells were then seeded at single cell/well densities in a 96-well dish and selected for with puromycin. Clones were grown and tested for knockdown by western blot.
Astrocytes were plated at a density of 3000-5000 cells/well in a white, opaque-bottom 96-well dish (Corning). If cells were tested in galactose medium, they were seeded in galactose medium, and left for a minimum of 16 hours before subjected to treatment. Galactose medium was made with glucose-, pyruvate-, phenol-, and glutamine-free DMEM (Gibco) which was then supplemented with 0.9 mg/ml galactose (Sigma), pyruvate (Quality biological, Inc), and 10% dialyzed FBS (Gibco). Treatments were performed for 20 min unless otherwise stated and concentrations of drugs described elsewhere. Drugs used: MRS2365, MRS2500, AST-004, 3-Propyl-6-ethyl-5-[(ethylthio)carbonyl]-2 phenyl-4-propyl-3-pyridine carboxylate (MRS1523) (Tocris Bioscience), sodium dichloroacetate (DCA) (Sigma Aldrich), Oligomycin (Sigma Aldrich), 1-(2-(2-tert-Butylphenoxy)pyridin-3-yl)-3-(4-(trifluoromethoxy)phenyl)urea (BPTU) (Millipore), and Ruthenium 360 (Cal Biochem). Next, media was removed from cells, and 100 μl fresh media immediately added. Then, 95 μl of mixed luminescence substrate from the ATPlite 1-Step kit were added (Perkin-Elmer). Plates were wrapped in aluminum foil and shaken for 3 min on a plate rotator before reading on a luminometer. Readings were normalized to protein as determined by Coomassie Plus Bradford assay (Thermo Fisher). All statistics were analyzed using GraphPad Prism software.

[3] = test system: photothrombosis-induced stroke; experiment: Photothrombotic induced model of stroke, lesion volume by TTC staining; format: in vivo, mouse
[4] = test system: cocaine self-administering mice; experiment: Cocaine self-administration; format: in vivo, mouse; conditions: osmotic minipump, 100 μL at 2.78 mM
Protocol: Data that are normalized to each mouse's individual cocaine intake at baseline. Mice were trained to self-administer cocaine (0.5 mg/kg/infusion) on a fixed ratio 3 schedule in 2-hr daily sessions. After their intake stabilized (baseline) mice were implanted with osmotic minipumps on day 0 either containing saline (filled circles) or the drug AST-004 (open circles), n=5 mice in each group. Mice were given a day off (day 7), then returned to self-administration in daily sessions. Note the number of infusions goes down in the AST-004 treated mice, while saline treated mice increased infusions.
We used procedures adapted from our recently published work that describes i.v. cocaine self-administration in fully fed mice (6, 7). Male C57BL/6J mice (6 to 7-week-old) purchased from Jackson labs and were kept on a 12/12-hour reverse light-dark cycle (lights off at 0900 h) with ad libitum access to food and water. Cocaine hydrochloride (generously provided by the NIDA drug supply program, Bethesda, MD) was dissolved in sterile physiological saline (NaCl 0.9%). Cocaine was prepared at a concentration that delivers 0.5 mg/kg/12 μL per infusion, based on a typical weight of a young adult mouse (28 g). Mice were implanted with an indwelling catheter in the right jugular vein. […]

[5] = 20 min treatment, normal glucose medium

SMILES | neuroprotection after traumatic brain injury (TBI) ([1]; mice) | TBI induced increases in GFAP expression [1] | ATP production (OCR revealed by oligomycin) (astrocytes (C8-D1A); 400 nM) | basal respiration (OCR) (astrocytes (C8-D1A); after addition to the bath at 15 minutes, vs control injections) | maximal respiration (OCR after FCCP) (astrocytes (C8-D1A); uncoupling by FCCP) | integrated Ca2+ response (cultured astrocytes; astrocytes cultured from mouse, rat, pig and human brain tissue) | intracellular Ca2+ (cultured astrocytes; cultured astrocytes, Cal520 dye) | stimulation of Ca2+ release under pertussis toxin treatment (cultured astrocytes; pertussis toxin treatment, consistent with Gq-coupling) | photon flux levels (ATP-production in astrocytes) [2] | ATP levels, control cells (scrambled shRNA) (astrocytes; [5]) | stroke infarction volume ([3]; 0.2 mg/kg, intraperitoneally within 30 min post stroke, 24 hours post-stroke, vs vehicle) | cocaine self-administration ([4]; FR3, 2-hr daily sessions, vs saline) | cocaine intake normalized to baseline ([4]; over 2 weeks, n=5) | reduction of stroke infarction volume by AST-004 after antagonist pretreatment ([3]; pretreatment with the A3R antagonist) | ATP levels, control cells (scrambled shRNA), galactose medium (astrocytes; 20 min treatment, glucose-free, galactose supplemented media) | ATP levels, astrocytes with reduced levels of GLUD1 (GLUD1 shRNA) (astrocytes; [5]) | ATP levels, astrocytes with reduced GLUD1 levels, galactose medium (astrocytes; in the presence of galactose)
CSc1nc(N)c2ncn([C@H]3[C@H](O)[C@H](O)[C@]4(CO)C[C@H]34)c2n1 [AST-004] | neuroprotective | reduced | significantly greater | increased | significantly higher | dose-dependent | stimulates intracellular Ca2+ | not blocked | significantly higher | increased ATP levels in a GLUD1-dependent manner | significantly reduced | significantly reduces | approximately 60 % of baseline |  |  |  | 
CCCOC(=O)c1c(-c2ccccc2)nc(CC)c(C(=O)SCC)c1CCC [MRS1523, 3-Propyl-6-ethyl-5-[(ethylthio)carbonyl]-2 phenyl-4-propyl-3-pyridine carboxylate, reference compound] |  |  |  |  |  |  |  |  |  |  |  |  |  | blocked |  |  | 
CSc1nc(N)c2ncn([C@H]3[C@H](O)[C@H](O)[C@]4(COP(=O)(O)OP(=O)(O)O)C[C@H]34)c2n1 [MRS2365] |  | reduced |  |  |  |  |  |  |  | significantly increased |  |  |  |  | significantly increased | not responsive | similarly non-responsive
